# Measurements taken from patent US20220304945A1, “METHODS OF TREATING METABOLIC SYNDROME RELATED CONDITIONS USING RETINOIC ACID RECEPTOR AGONISTS” (Cornell University, priority 2014, published 2022).
# “Also recorded” adds a separate entry of the source.
# Tests used:
# Type in all cases: in vivo, mouse
# [1] = test system: hepatic stellate cells (HSCs); assay: Hepatic stellate cell activation: α-SMA immunofluorescence of liver, HF-fed mice; details: HF diet mice 4 months, vs HF-vehicle
# From the text: (§1) Mice, diet, and drug treatment. WT male C57/BL6 male mice were maintained on either a standard laboratory chow-fed diet (CFD) with 13% kcal fat, (diet #5053, Lab Diet, Inc, St. Louis, Mo.) or a high fat, western style diet (HFD) with 60% kcals from fat, (diet #58126, Lab Diet, Inc., St. Louis, Mo.) for 4 months. One month after the start of the high fat diet treatment, the high fat diet group was further split into 2 groups for 3 months: i) high fat diet and the drinking water containing 1% DMSO; ii) high fat diet and the drinking water containing 1.5 mg/100 ml AC261066, a specific RARβ agonist. Then mice were sacrificed by cervical dislocation. Blood and various tissue samples were harvested.
# Combined oil red O and Immunofluorescence. Staining. Fresh mouse liver samples were embedded in optimal cutting temperature (OCT) medium and immediately frozen to −70 centigrade. Cryosections were then fixed in 4% formaldehyde for 1 hr at room temp. Slides were then rinsed three times in deionized water (dH2O) for 30 s, followed by treatment with 0.5% Triton X-100 in PBS for 5 min. Sections were then washed three times with PBS for 5 min. Samples were with incubated 2% bovine serum albumin (BSA) for 30 min at room temperature to block for unspecific antibody binding. Following blocking, sections were washed three times in PBS and incubated with mouse monoclonal antibody against α-SMA (1:500) (Dako, Inc) for 24 h at 4° C. After 24 h sections were washed three times in PB and incubated with Alexa-Flour-488 anti-mouse secondary anti-body (1:500) (Invitrogen, Inc) for 30 min at room temperature. Sections were then washed three times in PBS and incubated with working strength oil-red O solution for 30 minutes at room temperature. Sections were then rinsed for 30 minutes under running tap water and cover-slipped with Vectashield hard mount plus DAPI (Vector Labs, Inc).
# [2] = test system: α-SMA, SREBP1c, MCP-1, TNF-α mRNA; assay: Semi-quantitative PCR of liver, HF-fed mice; details: HF diet mice 4 months
# From the text: as §1
# Semi-Quantitate PCR (Liver). Total RNA was extracted from mouse tissues using TRIzol reagent (Life technologies) and (1 μg) was used to synthesize cDNA. cDNA synthesis was performed at 42° C. for 1 h in a final volume of 20 μl using qScript (Quanta, MD). Semi-quantitative PCR were performed Taq DNA polymerase (Invitrogen, CA). Three step PCR was run as follows: 94° C. for 30 s, 58-64° C. for 45 s for primer annealing and 72° C. for 1 min for primer extension. The number of cycles for each primer pair for amplification in the linear range was determined experimentally. PCR products were resolved on 2% agarose gels and visualized by staining with ehtidium bromide. Primers for gene expression used were as follows: […]
# [3] = Serum triglyceride and cholesterol level measurements, HFD-fed mice (Examples 11-15); details: mice fed HFD 4 months, drug in drinking water (AC261066 1.5 mg/100 ml)
# Protocol: AC261066(Lund et al., Discovery of a potent, orally available, and isoform-selective retinoic acid beta2 receptor agonist. J Med Chem. 2005; 48(24):7517-9) and CD1530 (Thacher et al. Therapeutic applications for ligands of retinoid receptors. Curr Pharm Des. 2000; 6(1):25-58) was dissolved in dimethyl sulfoxide (DMSO) at the concentration of 1.5 mg/ml for AC261066 and 2.5 mg/ml for CD1530, and diluted in the drinking water for mice to the final concentration of 1.5 mg/100 ml and 2.5 mg/100 ml, respectively.
# (§2) WT male C57/BL6 male mice were maintained on either a standard laboratory chow-fed diet (Con) with 13% kcal fat, (diet #5053, Lab Diet, Inc, St. Louis, Mo.) or a high fat, western style diet (HFD) with 45% kcals from fat, (diet #58126, Lab Diet, Inc., St. Louis, Mo.) for 4 months. One month after the start of the HFD treatment, the HFD group was further split into 3 groups for 3 months: i) HFD and the drinking water containing 1% DMSO; ii) high fat diet (HFD) and drinking water containing 1.5 mg/100 ml AC261066, a specific RARβ agonist in 1% DMSO or iii) HFD and drinking water containing 1.5 mg/100 ml CD1530, a specific RARγ agonist in 1% DMSO. Then mice were sacrificed by cervical dislocation. Blood and various tissue samples were harvested.
# The analysis of serum triglyceride levels was carried out using a bichromatic assay at the Laboratory of Comparative Pathology of the Memorial Sloan-Kettering Cancer Center. Chow-fed diet (Con) n=4; high fat diet (HFD) n=4; high fat diet (HFD)+AC261066 n=4; and high fat diet (HFD)+CD1530, n=4.
# [4] = test system: srebp1-c, fas, dgat1, fgf21, ppar-γ, sirt1, ppar-α, srebp-2, hmgcr, pepck mRNA; assay: Q-RT-PCR of hepatic lipogenic, cholesterol and gluconeogenic genes, HFD-fed mice (Example 15)
# Protocol: as §2
# Total RNA was extracted from mouse tissues using TRIzol reagent (Life technologies) and (1 μg) was used to synthesize cDNA. cDNA synthesis was performed at 42° C. for 1 h in a final volume of 20 μl using qScript (Quanta, MD). Q-RTPCR was performed as previously described (15). Primers for gene expression used were as follows: […]
SMILES,activation of hepatic stellate cells (α-SMA positive staining in liver) [1],activation of hepatic stellate cells (α-SMA positive staining in liver) ([1]; listed as AC261011),hepatic mRNA level of MCP-1 [2],hepatic mRNA level of TNF-α [2],hepatic mRNA level of alpha-SMA ([2]; vs HF-vehicle),serum cholesterol [3],serum triglycerides [3],hepatic gene expression of pepck [4],"hepatic mRNA levels of lipogenic proteins srebp1-c, fas, dgat1, fgf21, ppar-γ [4]",hepatic mRNA levels of sirt1 and ppar-α [4],hepatic mRNA levels of srebp-2 and hmgcr [4],hepatic mRNA level of SREBP1-c ([2]; vs control diet)
CCCCOCCOc1nc(-c2ccc(C(=O)O)c(F)c2)sc1C [AC261066],diminished; also recorded: prevent; also recorded: decreased intensity and regions of α-SMA positive staining,decreased,decreases; also recorded: significantly diminish,decreases,decreased,greatly reduces; also recorded: significantly lower,greatly reduces; also recorded: significantly lower,not affected,greatly reduces; also recorded: significantly reduced,prevented a large decrease,significantly reduced,–
O=C(O)c1ccc(-c2ccc3cc(O)c(C45CC6CC(CC(C6)C4)C5)cc3c2)cc1 [CD1530],no evidence decreased,–,markedly elevated,markedly elevated,–,no decrease,no decrease,not affected,–,–,not observed,markedly higher
